# Experiments:
# [1] = Preliminary cytotoxicity assay (WST-8 reduction, viability and morphological observations); assay type: cell-based, human; conditions: human
# Method: (§1) In the present study, the effects of compound L-Ergothioneine were investigated in normal human epidermal keratinocytes (NHEK) under basal or UV-irradiated conditions. More specifically, the effects of this compound were evaluated using RT-qPCR technology. Extracted mRNA was analyzed using a PCR array (“mQPA-8-Nrf2”) for the analysis of 8 target genes (including 1 housekeeping gene) selected for their role in Nrf2 pathway. Prior to this assay, a preliminary cytotoxicity assay was performed on compound L-Ergothioneine and Resveratrol (reference in basal condition) using a standard WST-8 reduction assay, in order to determine the concentrations to be tested in this study.
# (§2) Cell type: Normal human epidermal keratinocytes (NHEK) used at the 3rd passage. Culture conditions: 37° C., 5% CO2. Culture medium: Keratinocyte-SFM optimized for the assay, supplemented with Epidermal Growth Factor Pituitary extract. Assay medium: Keratinocyte-SFM optimized for the assay. Test compound: L-Ergothioneine in ultrapure water. Test concentrations: 0.5, 3 and 30 μM. Reference: Resveratrol. Test concentration: 20 μM.
# (§3) Cell type: NHEK in assay medium. Incubation time: 24 hours.
# (§4) After treatment, the cells were incubated with WST-8 (highly water-soluble tetrazolium salt) reduced in a water-soluble orange colored product (formazan) by succinate dehydrogenase (mitochondrial enzyme). This transformation is proportional to the number of living cells and their metabolic activity. The optical density (OD) of the extracts at 450 nm was recorded with a spectrometer (VERSAmax, Molecular Devices).
# [2] = system: normal human epidermal keratinocytes (NHEK); experiment: as above; assay type: cell-based; conditions: human, 24 h
# Method: as §1, §2, §3, §4
# [3] = system: RPS28; experiment: RT-qPCR PCR array mQPA-8-Nrf2, housekeeping gene RPS28; assay type: cell-based, human
# Method: as §1, §2
# (§5) Keratinocytes were seeded in 24-well plates and cultured for 24 hours in culture medium and in assay medium for a further 24 hours. The medium was then replaced by assay medium containing or not (control) the compound or Resveratrol and cells were pre-incubated for 24 hours.
# (§6) After pre-incubation, the medium was then removed and replaced by a PBS solution. For basal conditions, the plate was kept in the dark during the irradiation time. For irradiated conditions, the cells were irradiated with UVB−275 mJ/cm^2 (+UVA−2 J/cm^2) using a SOL500 Sun Simulator equipped with an H2 filter (Dr. Hönle, AG). After irradiation time, the treatments were renewed, and the cells were incubated for 24 hours. All experimental conditions were performed in n=3. At the end of incubation, the cells were washed in phosphate buffered saline (PBS) solution and immediately frozen at −80° C.
# (§7) The expression of markers was analyzed using RT-qPCR method on total RNA extracted from the cell monolayers of each experimental condition (before RNA extraction, the replicates of the same experimental condition were pooled). The analysis of transcripts was performed in n=2 using a PCR array dedicated to research and adapted to ‘screening’ format and targeting 8 genes selected for their role in Nrf2 pathway.
# (§8) Total RNA was extracted from each sample using TriPure Isolation Reagent® according to the supplier's instructions. The amount and quality of RNA were evaluated using capillary electrophoresis (Bioanalyzer 2100, Agilent technologies). The complementary DNA (cDNA) was synthetized by reverse transcription of total RNA in presence of oligo(dT) and «Transcriptor Reverse Transcriptase» (Roche Molecular System Inc.). The cDNA quantities were then adjusted before PCR.
# (§9) The PCR (Polymerase Chain Reaction) were performed using the «LightCycler®» system (Roche Molecular System Inc.) according to the supplier's instructions. The reaction mix (10 μl final) was prepared as follows: 2.5 μl of cDNA; primers (forward and reverse); reagent mix (Roche) containing taq DNA polymerase, SYBR Green I and MgCl2.
# (§10) The incorporation of fluorescence in amplified DNA was continuously measured during the PCR cycles. […] The value selected for RE calculations is the “output point” (Ct) of the fluorescence curve. For a considered marker, the highest is the cycle number; the lowest is the mRNA quantity. The RE value was calculated with the formula: (½^number of cycles)×10^6. The PCR array used in the present study included 1 reference gene (RPS28).
# [4] = system: NQO1; experiment: RT-qPCR PCR array mQPA-8-Nrf2, NQO1 expression in NHEK; assay type: cell-based, human
# Method: as §1, §2, §5, §6, §7, §8, §9, §10
# [5] = system: HMOX1; experiment: RT-qPCR PCR array mQPA-8-Nrf2, HMOX1 expression in NHEK; assay type: cell-based, human
# Method: as §1, §2, §5, §6, §7, §8, §9, §10
# [6] = system: MT1G; experiment: RT-qPCR PCR array mQPA-8-Nrf2, MT1G expression in NHEK; assay type: cell-based, human
# Method: as §1, §2, §5, §6, §7, §8, §9, §10
# [7] = system: TXN; experiment: RT-qPCR PCR array mQPA-8-Nrf2, TXN expression in NHEK; assay type: cell-based, human
# Method: as §1, §2, §5, §6, §7, §8, §9, §10
# [8] = system: TXNRD1; experiment: RT-qPCR PCR array mQPA-8-Nrf2, TXNRD1 expression in NHEK; assay type: cell-based, human
# Method: as §1, §2, §5, §6, §7, §8, §9, §10
# [9] = system: GCLC; experiment: RT-qPCR PCR array mQPA-8-Nrf2, GCLC expression in NHEK; assay type: cell-based, human
# Method: as §1, §2, §5, §6, §7, §8, §9, §10
# [10] = system: GCLM; experiment: RT-qPCR PCR array mQPA-8-Nrf2, GCLM expression in NHEK; assay type: cell-based, human
# Method: as §1, §2, §5, §6, §7, §8, §9, §10
# [11] = system: Nrf2 pathway; experiment: Gene expression profile of keratinocytes (mQPA-8-Nrf2 array as a whole); assay type: cell-based, human
# Method: as §1, §2, §5, §6, §7
# [12] = UV-irradiated (UVB-275 mJ/cm^2 +UVA-2 J/cm^2), 0.5 μM
# [13] = UV-irradiated (UVB-275 mJ/cm^2 +UVA-2 J/cm^2), 3 μM
# [14] = UV-irradiated (UVB-275 mJ/cm^2 +UVA-2 J/cm^2), 30 μM
structure (smiles),measurement,setting,value
"C[N+](C)(C)[C@@H](Cc1c[nH]c(=S)[nH]1)C(=O)[O-] [L-Ergothioneine, (2S)-3-(2-thioxo-2,3-dihydro-1H-imidazol-4-yl)-2-(trimethylammonio)-propanoate]","viability at 24 h, 2.2 µM",[1]; Viability (%),97%
same,"viability at 24 h, 6.7 µM",[1]; Viability (%),98%
same,"viability at 24 h, 20 µM",[1]; Viability (%),99%
same,"viability at 24 h, 60 µM",[1]; Viability (%),100%
same,"viability at 24 h, 180 µM",[1]; Viability (%),99%
same,"viability at 24 h, 540 µM",[1]; Viability (%),100%
same,"viability at 24 h, 1620 µM",[1]; Viability (%),89%
same,"viability at 24 h, 4860 µM",[1]; Viability (%),82%
same,"viability at 24 h, 2.2 µM",[1]; Viability Mean (%),100%
same,"viability at 24 h, 6.7 µM",[1]; Viability Mean (%),99%
same,"viability at 24 h, 20 µM",[1]; Viability Mean (%),99%
same,"viability at 24 h, 60 µM",[1]; Viability Mean (%),99%
same,"viability at 24 h, 180 µM",[1]; Viability Mean (%),97%
same,"viability at 24 h, 540 µM",[1]; Viability Mean (%),66%
same,"viability at 24 h, 1620 µM",[1]; Viability Mean (%),92%
same,"viability at 24 h, 4860 µM",[1]; Viability Mean (%),83%
same,Viability (%),[2]; 2.2 µM,105%
same,Viability (%),[2]; 6.7 µM,101%
same,Viability (%),[2]; 20 µM,102%
same,Viability (%),[2]; 180 µM,95%
same,Viability (%),[2]; 4860 µM,79%
same,RPS28 % Control RPS28,[3]; [12],100 % Control
same,RPS28 % Control RPS28,[3]; [13],100 % Control
same,RPS28 % Control RPS28,[3]; [14],100 % Control
same,RPS28 % Control RPS28,"[3]; basal conditions, 0.5 μM",100 % Control
same,RPS28 % Control RPS28,"[3]; basal conditions, 3 μM",100 % Control
same,RPS28 % Control RPS28,"[3]; basal conditions, 30 μM",100 % Control
same,NQO1 % Control RPS28,[4]; [12],118 % Control
same,NQO1 % Control RPS28,[4]; [13],136 % Control
same,NQO1 % Control RPS28,[4]; [14],207 % Control
same,NQO1 % Control RPS28,"[4]; basal conditions, 0.5 μM",127 % Control
same,NQO1 % Control RPS28,"[4]; basal conditions, 3 μM",131 % Control
same,NQO1 % Control RPS28,"[4]; basal conditions, 30 μM",155 % Control
same,HMOX1 % Control RPS28,[5]; [12],104 % Control
same,HMOX1 % Control RPS28,[5]; [13],109 % Control
same,HMOX1 % Control RPS28,[5]; [14],141 % Control
same,HMOX1 % Control RPS28,"[5]; basal conditions, 0.5 μM",86 % Control
same,HMOX1 % Control RPS28,"[5]; basal conditions, 3 μM",91 % Control
same,HMOX1 % Control RPS28,"[5]; basal conditions, 30 μM",98 % Control
same,MT1G % Control RPS28,[6]; [12],81 % Control
same,MT1G % Control RPS28,[6]; [13],94 % Control
same,MT1G % Control RPS28,[6]; [14],102 % Control
same,MT1G % Control RPS28,"[6]; basal conditions, 0.5 μM",113 % Control
same,MT1G % Control RPS28,"[6]; basal conditions, 3 μM",99 % Control
same,MT1G % Control RPS28,"[6]; basal conditions, 30 μM",115 % Control
same,TXN % Control RPS28,[7]; [12],89 % Control
same,TXN % Control RPS28,[7]; [13],99 % Control
same,TXN % Control RPS28,[7]; [14],101 % Control
same,TXN % Control RPS28,"[7]; basal conditions, 0.5 μM",87 % Control
same,TXN % Control RPS28,"[7]; basal conditions, 3 μM",83 % Control
same,TXN % Control RPS28,"[7]; basal conditions, 30 μM",98 % Control
same,TXNRD1 % Control RPS28,[8]; [12],99 % Control
same,TXNRD1 % Control RPS28,[8]; [13],97 % Control
same,TXNRD1 % Control RPS28,[8]; [14],120 % Control
same,TXNRD1 % Control RPS28,"[8]; basal conditions, 0.5 μM",75 % Control
same,TXNRD1 % Control RPS28,"[8]; basal conditions, 3 μM",72 % Control
same,TXNRD1 % Control RPS28,"[8]; basal conditions, 30 μM",82 % Control
same,GCLC % Control RPS28,[9]; [12],106 % Control
same,GCLC % Control RPS28,[9]; [13],126 % Control
same,GCLC % Control RPS28,[9]; [14],181 % Control
same,GCLC % Control RPS28,"[9]; basal conditions, 0.5 μM",111 % Control
same,GCLC % Control RPS28,"[9]; basal conditions, 3 μM",118 % Control
same,GCLC % Control RPS28,"[9]; basal conditions, 30 μM",140 % Control
same,GCLM % Control RPS28,[10]; [12],76 % Control
same,GCLM % Control RPS28,[10]; [13],86 % Control
same,GCLM % Control RPS28,[10]; [14],86 % Control
same,GCLM % Control RPS28,"[10]; basal conditions, 0.5 μM",95 % Control
same,GCLM % Control RPS28,"[10]; basal conditions, 3 μM",97 % Control
same,GCLM % Control RPS28,"[10]; basal conditions, 30 μM",98 % Control
same,Modulation of the gene expression profile of irradiated keratinocytes,"[11]; UVB (+UVA) irradiated, tested at 0.5, 3 and 30 μM",did not induce major modulations
same,"Effect on gene expression, basal keratinocytes","[11]; basal, lowest tested concentrations",no effect was observed
same,Modulation of the gene expression profile of basal keratinocytes,"[11]; basal, tested at 0.5, 3 and 30 μM",did not induce major modulations
same,"Effect on gene expression, irradiated keratinocytes","[11]; irradiated, lowest tested concentrations",no effect was observed
